Reference: paper PMC9603521, “WYBQ-4: a New Bactericidal Agent against Methicillin-Resistant Staphylococcus aureus” (Microbiology Spectrum, 2022)
≈ marks a conversion by molar mass, not a printed value.

Key:
[1] = test system: methicillin-resistant Staphylococcus epidermidis (MRSE) 12228; assay: MIC by broth microdilution (CLSI); format: cell-based
Streptococcus pyogenes = assay: MIC by broth microdilution (CLSI); format: cell-based
Enterococcus faecalis = assay: MIC by broth microdilution (CLSI); format: cell-based; settings: compared to that against Staphylococcus
MRSA USA300 [2] = assay: Time-kill curve; format: cell-based, Staphylococcus aureus; settings: 8× MIC, at 9 h
Method: (§1) The bactericidal activities of WYBQ-4 against MSSA 29213 and MRSA USA300 were determined in vitro. Overnight cultures were diluted to 10^6 CFU (CFU)/mL in 10 mL of fresh Mueller-Hinton broth (MHB) medium. […] After incubation at 37°C with shaking for 0 to 24 h, 100-μL samples from each time point were subcultured on MHB agar plates and incubated at 37°C for 24 h. MSSA 29213 and MRSA USA300 without WYBQ-4 were used as control groups. Colony numbers were counted to calculate the CFU, and the data were expressed as log10 CFU. Three biological replicates were performed for the experiment.

MSSA 29213 [3] = assay: Time-kill curve; format: cell-based, Staphylococcus aureus; settings: 4× MIC, at 9 h
Method: as §1

PBP1 = PBP1 (Staphylococcus aureus, UniProt Q53725); assay: PBP binding, bocillin competition fluorescence gel assay; settings: dose-dependent
Method: (§2) Using the genome of S. aureus USA300 as a template, PCR was performed to amplify PBP1, PBP2, PBP3, PBP4, and PBP2a genes with primers designed according to Table 1. Then, the amplified fragments were treated with BamHI/XhoI and then inserted into the cloning site of the BamHI/XhoI-digested pET28a to yield pET28a-PBP1, pET28a-PBP2, pET28a-PBP3, pET28a-PBP4, and pET28a-PBP2a, respectively. The plasmid was transformed into E. coli BL21(DE3) and cultured in LB medium containing Kan resistance until the OD600 reached 0.6, and PBP expression was induced overnight at 16°C by adding 0.5 mM IPTG (isopropyl-β-D-thiogalactopyranoside). The bacteria were then lysed by sonication, the […] was collected, and the proteins were purified using a HIS-Select nickel affinity gel system (Beyotime, Shanghai, China).
(§3) PBP binding assays were performed as previously described ([30], [31]). Selective labeling of PBP from preincubated samples ([…] protein) with various concentrations of WYBQ-4 was performed for 15 min, and then 25 μM BOCILLIN FL (Invitrogen) was added, followed by an additional 10 min at 37°C. Proteins were separated by SDS-PAGE, and the PBPs were detected by a gel fluorescence imaging instrument (excitation, 488 nm; emission, 530 nm).

PBP2 = PBP2 (Staphylococcus aureus, UniProt Q9R744); assay: as above
Method: as §2, §3

PBP2a [4] = target: PBP2a (Staphylococcus aureus, UniProt Q53707); assay: as above
Method: as §2, §3

PBP3 = PBP3 (Staphylococcus aureus, UniProt Q9XDB3); assay: as above; settings: dose-dependent
Method: as §2, §3

PBP4 = PBP4 (Staphylococcus aureus, UniProt P72355); assay: as above; settings: dose-dependent
Method: as §2, §3

PBP2a [5] = target: PBP2a (Staphylococcus aureus, UniProt P07944); assay: Dissociation equilibrium constant (Ks) by BOCILLIN FL method; format: binding, MRSA
Method: Α = A + ∆ε E (k∗ ∕ (k∗ + k∗)(1 − exp (−(k∗ + k∗)t)) + k N ∆ε Ε t (2)
Where kn* is the pseudo-first-order rate constant for acylation by nitrocefin at the concentration (N0) employed (0.1 mM), ki* the pseudo-first-order rate constant for the reaction of PBP2a with the WYBQ-4, E0 the initial enzyme concentration (2.5 µM), and k0 the second-order rate constant of nonspecific nitrocefin hydrolysis. Second-order rate constants (ki) for acylation were calculated from a linear least-squares fit to a plot of the apparent first-order rate constants (ki*) against the concentration of WYBQ-4. All plots were linear for the concentrations of WYBQ-4 used.
Determination of dissociation equilibrium constants (Ks) of WYBQ-4 and PBP2a The dissociation equilibrium constant (Ks) of PBP2a with WYBQ-4 were determined by the BOCILLIN method (2), as previously described. […] Samples (30 μL) were loaded onto a 10% SDS-polyacrylamide gel, which was developed and then observed using a fluorescence imager to calculate the grayscale curve. […]
The deacylation rate constants for wild-type PBP2a were determined using BOCILLIN FL as a reporter molecule. […]
The mixture was diluted 5 times with buffer and incubated at room temperature for different time intervals. […] Grayscale analysis was performed by imageJ and the rate constant k3 for the deacylation reaction of WYBQ-4 with PBP2a was determined based on eqn (3): […]

MRSA USA300 [6] = assay: Mouse intramuscular (thigh) infection model; format: in vivo; settings: MRSA USA300-infected mice; 300 mg/kg subcutaneous; 24 h after infection
Method: (§4) The therapeutic effects of WYBQ-4 on thigh infections induced by MRSA USA300 and MSSA 29213 in mice (6-week-old female C57BL/6J mice) were evaluated. […] Mice were infected by intramuscular injection of 0.1 mL of S. aureus culture (5 × 10^5 CFU) into the right thigh. […] Then, 24 h after infection, mice were euthanized, and the right thighs were aseptically removed, weighed, homogenized, and applied to nonresistant BHI plates for CFU counting.

MSSA 29213 [7] = assay: Mouse intramuscular (thigh) infection model; format: in vivo; settings: MSSA 29213-infected mice; 300 mg/kg subcutaneous; 24 h after infection
Method: as §4

Chain of PBP2a (Staphylococcus aureus, UniProt Q53707) (Q53707 entry or part of it): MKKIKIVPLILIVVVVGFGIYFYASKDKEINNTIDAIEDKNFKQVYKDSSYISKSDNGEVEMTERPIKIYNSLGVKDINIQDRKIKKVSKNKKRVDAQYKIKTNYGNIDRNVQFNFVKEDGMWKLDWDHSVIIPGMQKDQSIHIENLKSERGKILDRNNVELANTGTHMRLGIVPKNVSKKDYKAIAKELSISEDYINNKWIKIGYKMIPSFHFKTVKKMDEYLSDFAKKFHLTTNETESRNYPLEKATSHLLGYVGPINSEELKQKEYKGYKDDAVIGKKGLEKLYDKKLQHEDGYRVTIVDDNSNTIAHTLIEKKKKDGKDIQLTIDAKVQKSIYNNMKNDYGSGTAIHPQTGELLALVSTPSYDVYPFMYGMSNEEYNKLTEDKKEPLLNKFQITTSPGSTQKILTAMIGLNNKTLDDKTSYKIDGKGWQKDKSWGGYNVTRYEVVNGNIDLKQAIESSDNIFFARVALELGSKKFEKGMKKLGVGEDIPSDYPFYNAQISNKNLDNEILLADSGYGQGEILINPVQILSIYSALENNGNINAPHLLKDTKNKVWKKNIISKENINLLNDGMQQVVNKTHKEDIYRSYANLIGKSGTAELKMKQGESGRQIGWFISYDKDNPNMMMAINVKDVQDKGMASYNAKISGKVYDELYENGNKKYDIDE
Chain of PBP1 (Q53725 1-744): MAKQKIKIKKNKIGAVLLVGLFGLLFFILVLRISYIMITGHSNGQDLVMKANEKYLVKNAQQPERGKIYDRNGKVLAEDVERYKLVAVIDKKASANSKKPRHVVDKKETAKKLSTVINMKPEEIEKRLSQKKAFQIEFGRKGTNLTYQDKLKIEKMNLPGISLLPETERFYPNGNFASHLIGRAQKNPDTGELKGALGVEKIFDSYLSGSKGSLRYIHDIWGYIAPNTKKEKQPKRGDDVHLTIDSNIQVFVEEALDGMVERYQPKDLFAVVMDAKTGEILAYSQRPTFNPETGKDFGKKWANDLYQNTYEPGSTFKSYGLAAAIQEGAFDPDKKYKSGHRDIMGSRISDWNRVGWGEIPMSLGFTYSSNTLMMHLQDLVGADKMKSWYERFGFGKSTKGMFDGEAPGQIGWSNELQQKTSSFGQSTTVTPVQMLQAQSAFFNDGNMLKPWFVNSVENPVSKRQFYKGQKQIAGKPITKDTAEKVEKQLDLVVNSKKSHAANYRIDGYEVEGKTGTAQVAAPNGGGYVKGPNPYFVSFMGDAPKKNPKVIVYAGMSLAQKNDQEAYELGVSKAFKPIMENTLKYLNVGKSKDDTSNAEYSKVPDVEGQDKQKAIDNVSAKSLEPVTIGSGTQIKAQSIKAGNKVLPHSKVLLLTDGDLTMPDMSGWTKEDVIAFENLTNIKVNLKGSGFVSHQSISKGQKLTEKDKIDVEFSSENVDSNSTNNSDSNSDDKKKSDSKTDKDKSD
Chain of PBP3 (Q9XDB3 1-691): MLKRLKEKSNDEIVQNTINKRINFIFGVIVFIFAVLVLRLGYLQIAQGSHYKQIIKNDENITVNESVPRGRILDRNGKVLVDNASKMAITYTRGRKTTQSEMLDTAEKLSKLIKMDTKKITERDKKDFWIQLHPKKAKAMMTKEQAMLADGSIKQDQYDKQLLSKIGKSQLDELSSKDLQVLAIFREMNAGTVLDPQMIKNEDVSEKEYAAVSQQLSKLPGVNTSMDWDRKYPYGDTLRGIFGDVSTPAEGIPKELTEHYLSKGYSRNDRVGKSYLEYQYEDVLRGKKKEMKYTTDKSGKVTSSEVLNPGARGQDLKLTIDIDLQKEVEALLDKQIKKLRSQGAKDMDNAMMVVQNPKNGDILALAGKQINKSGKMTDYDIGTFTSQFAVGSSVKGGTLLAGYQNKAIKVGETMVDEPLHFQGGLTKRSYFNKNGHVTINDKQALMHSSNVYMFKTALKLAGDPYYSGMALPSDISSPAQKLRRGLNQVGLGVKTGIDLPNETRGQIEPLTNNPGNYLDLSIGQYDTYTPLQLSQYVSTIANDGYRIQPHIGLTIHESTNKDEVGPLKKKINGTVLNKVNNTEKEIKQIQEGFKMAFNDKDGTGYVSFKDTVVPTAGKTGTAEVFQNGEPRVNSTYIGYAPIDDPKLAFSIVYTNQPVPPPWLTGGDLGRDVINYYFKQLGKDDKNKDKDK
Chain of PBP4 (P72355 25-431): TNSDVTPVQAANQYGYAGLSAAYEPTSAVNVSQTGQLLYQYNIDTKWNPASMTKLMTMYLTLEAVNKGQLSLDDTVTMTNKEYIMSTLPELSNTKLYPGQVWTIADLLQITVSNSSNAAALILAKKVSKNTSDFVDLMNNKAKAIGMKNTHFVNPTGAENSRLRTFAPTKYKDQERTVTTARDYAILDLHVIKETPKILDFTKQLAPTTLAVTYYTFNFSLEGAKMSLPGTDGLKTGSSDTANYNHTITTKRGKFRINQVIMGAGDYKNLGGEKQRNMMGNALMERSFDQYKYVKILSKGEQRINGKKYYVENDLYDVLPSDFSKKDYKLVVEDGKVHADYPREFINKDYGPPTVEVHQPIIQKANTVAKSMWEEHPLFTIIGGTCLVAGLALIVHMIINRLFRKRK
Chain of PBP2 (Q9R744 1-727): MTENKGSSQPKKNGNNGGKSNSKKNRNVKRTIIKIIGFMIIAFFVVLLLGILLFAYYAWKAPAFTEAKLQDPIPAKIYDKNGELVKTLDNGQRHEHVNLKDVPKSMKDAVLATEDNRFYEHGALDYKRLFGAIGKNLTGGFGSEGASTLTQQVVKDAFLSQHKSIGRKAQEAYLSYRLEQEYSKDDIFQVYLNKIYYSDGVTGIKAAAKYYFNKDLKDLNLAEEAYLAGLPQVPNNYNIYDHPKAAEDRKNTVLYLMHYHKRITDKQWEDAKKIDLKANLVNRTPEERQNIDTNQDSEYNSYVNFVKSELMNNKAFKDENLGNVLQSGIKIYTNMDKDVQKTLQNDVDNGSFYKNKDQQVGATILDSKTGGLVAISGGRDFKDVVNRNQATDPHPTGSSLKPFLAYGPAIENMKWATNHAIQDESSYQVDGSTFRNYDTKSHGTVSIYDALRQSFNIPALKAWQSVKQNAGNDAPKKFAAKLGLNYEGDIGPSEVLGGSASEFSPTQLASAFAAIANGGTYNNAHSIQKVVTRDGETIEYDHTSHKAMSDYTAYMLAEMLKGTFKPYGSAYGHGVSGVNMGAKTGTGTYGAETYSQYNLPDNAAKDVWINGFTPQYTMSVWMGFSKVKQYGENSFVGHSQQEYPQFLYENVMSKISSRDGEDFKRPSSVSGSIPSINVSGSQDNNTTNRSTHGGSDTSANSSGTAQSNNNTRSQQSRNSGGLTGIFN
Chain of PBP2a (Staphylococcus aureus, UniProt P07944) (P07944 whole entry): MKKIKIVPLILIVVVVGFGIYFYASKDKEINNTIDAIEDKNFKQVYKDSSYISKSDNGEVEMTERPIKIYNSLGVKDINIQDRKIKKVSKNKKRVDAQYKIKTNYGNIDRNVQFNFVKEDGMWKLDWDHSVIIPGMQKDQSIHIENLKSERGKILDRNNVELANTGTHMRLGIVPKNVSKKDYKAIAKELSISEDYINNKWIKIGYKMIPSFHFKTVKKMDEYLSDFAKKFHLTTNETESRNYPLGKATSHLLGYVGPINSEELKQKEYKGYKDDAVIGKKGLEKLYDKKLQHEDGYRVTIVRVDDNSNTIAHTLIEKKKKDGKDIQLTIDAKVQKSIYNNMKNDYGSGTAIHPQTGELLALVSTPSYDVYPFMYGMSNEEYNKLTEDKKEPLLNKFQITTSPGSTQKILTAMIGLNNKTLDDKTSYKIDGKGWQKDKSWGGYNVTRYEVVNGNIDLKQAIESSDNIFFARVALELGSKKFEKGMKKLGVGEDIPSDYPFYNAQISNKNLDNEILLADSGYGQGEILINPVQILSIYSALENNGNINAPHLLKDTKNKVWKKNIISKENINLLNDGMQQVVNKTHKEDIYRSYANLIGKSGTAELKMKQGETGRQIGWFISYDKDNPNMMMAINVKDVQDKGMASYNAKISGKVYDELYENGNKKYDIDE

`C#CCO[C@@]1(NC(=O)CSc2cccc(C)c2)C(=O)N2C(C(=O)O)=C(CSc3nnnn3C)CSC21` (some centres unmarked) [WYBQ-4] was tested, and the MIC [1] was 4 µg/mL (≈ 7.32 µM), the MIC (Streptococcus pyogenes) was 1 µg/mL (≈ 1.83 µM) and the antibacterial activity (Enterococcus faecalis) was “weak”. The time-dependent killing effect (MRSA USA300 [2]) was “complete sterilization”, the time-dependent killing effect (MSSA 29213 [3]) was “complete sterilization” and the “affinity for PBP1 (bocillin competition)” value (PBP1) was “had an affinity”. For the same compound, the “concentration at which bocillin fluorescence disappeared completely” value (PBP2) was 0.25 µg/mL, the IC50 (PBP2a [4]) was 3.66 µM and the “concentration that completely competed for the binding of bocillin” value (PBP2a [4]; PBP2a) was 2 µg/mL. For the same compound, the “affinity for PBP3 (bocillin competition)” value (PBP3) was “had an affinity”, the “affinity for PBP4 (bocillin competition)” value (PBP4) was “had an affinity” and the Kd (PBP2a [5]) was 28 ± 1.24 µM. The “bacterial load in the thighs” value (MRSA USA300 [6]) was 5.97 log10 CFU/g and the “bacterial load in the thighs” value (MSSA 29213 [7]) was 5.21 log10 CFU/g.
